Entries after “also recorded” stand apart in the source; their conditions may differ. Where two headings read alike, the source gives them in different places.
Tests used:
Gut Microbiota = conditions: cited from earlier work
[1] = 12-hour MPA pharmacokinetic profile in kidney transplant patients taking MMF; assay type: in vivo, human; conditions: five kidney transplant participants on MMF
Experimental: The following example used a stool sample of a kidney transplant patient who was on a steady state dose of 1 gram of mycophenolate mofetil (MMF) twice a day (FIG. 1). This patient underwent intensive pharmacokinetic sampling over 12 hours to assess enterohepatic recirculation (EHR) carefully and accurately. Once participants reach a steady state dose between days 15-45 post-transplant, fourteen blood samples were obtained at the time the morning MMF does was administered and at 30 minutes, one hour, two hours, three hours, four hours, five hours, six hours, seven hours, eight hours, nine hours, ten hours, 11 hours, and 12 hours following the morning MMF dose. The sampling strategy assured capture of the secondary peak and EHR characteristics.
Five kidney transplant recipients taking MMF and tacrolimus as maintenance immunosuppression had their six-hour MPA levels assessed in the in vitro assay exposing microbiome to MPAG (FIG. 5). These patients also underwent an extensive 12-hour MPA pharmacokinetic (PK) profile (FIG. 6), and the stool samples were collected at the time of the PK profile. The percent EHR in these kidney transplant recipients was defined as [MPA AUC6-12 hour]/[AUC0-12 hour]×100 as a measure of their in vivo EHR. The correlation coefficient between the six-hour MPA level from the in vitro model with percentage EHR was 0.82 (95% CI—0.21 to 0.98, P=0.08).

stool microbiota [2] = assay: In vitro anaerobic culture of patient stool microbiome with MPA or MPAG, HPLC-MS/MS of supernatant; assay type: in vitro ADME, human
Experimental: A human microbiome sample from stool was collected from a patient between days 15-45 post-transplant, during their 12-hour pharmacokinetic visit. Prior to the initiation of the culture of microbiome stool sample, in the MPA arm of the experiment, a 1 mg/mL stock solution of MPA was diluted to […] in thirteen anaerobic culture tubes by adding 0.7 mL of the stock MPA solution to 6.3 mL of YCFA (Yeast extract-Casein hydrolysate-fatty acids) medium broth. Likewise, for the MPAG arm of the experiment, a […] stock solution of MPAG was diluted to […] in thirteen anaerobic culture tubes by adding 0.7 mL of the stock MPAG solution to 6.3 mL of YCFA (Yeast extract-Casein hydrolysate-fatty acids) medium broth.
Stool aliquots of ˜0.5 g were incubated in separate YCFA tubes containing MPA or MPAG for six hours, 24 hours, or 48 hours in separate tubes, at 37° C. under anaerobic conditions (FIG. 2). All aliquots were collected at each timepoint in triplicate. Aliquots were also collected from MPA and MPAG tubes without any stool samples at zero, six hours, 24 hours, and 48 hours to serve as controls for this experiment.
After incubation, samples were […] at 16,000×g for 10 minutes, and the supernatant was collected and stored at −80° C. prior to high performance liquid chromatography-tandem mass spectrometry (HPLC-MS/MS) analysis. The supernatant was assessed for the presence and concentration of total MPA and MPAG using a validated mass spectrometry assay. Total MPA and MPAG concentration were determined based on certified analytical reference standards of […] of MPA and MPAG. These analytical reference standards were used as internal standards during the mass spectrometry assay.

stool microbiota [3] = assay: as above; assay type: in vitro ADME, human; conditions: stool frozen at −80° C. for mean 312 days, thawed at 4° C. overnight, assay at 37° C.; six and 24 hours
[4] = effect of gut microbiome on the compound

Row | Molecule | Gut Microbiota Modification (Gut Microbiota) | Effect of microbial modification (Gut Microbiota; [4]) | other results
1 | NC(=O)c1cc(N2CC2)c([N+](=O)[O-])cc1[N+](=O)[O-] [CB1954] | Improved efficacy | Activation [7] | –
2 | Nc1nc(Cl)nc2c1ncn2[C@H]1C[C@H](O)[C@@H](CO)O1 [Cladribine] | Inhibited efficacy | Inactivation[7] | –
3 | O=C(O)Cc1ccccc1Nc1c(Cl)cccc1Cl [Diclofenac] | – | Toxicity [2, 3] | –
4 | Nc1nc(F)nc2c1ncn2[C@@H]1O[C@H](COP(=O)(O)O)[C@@H](O)[C@@H]1O [Fludarabine de phosphate] | Improved efficacy | Activation [7] | –
5 | Nc1ccn([C@@H]2O[C@H](CO)[C@@H](O)C2(F)F)c(=O)n1 [Gemcitabine] | Inhibited efficacy | Inactivation[7] | –
6 | CCc1c2c(nc3ccc(OC(=O)N4CCC(N5CCCCC5)CC4)cc13)-c1cc3c(c(=O)n1C2)COC(=O)[C@]3(O)CC [Irinotecan] | – | Toxicity [1, 2] | –
7 | COc1c(C)c2c(c(O)c1C/C=C(\C)CCC(=O)O)C(=O)OC2 [MPA, mycophenolic acid] | – | – | % EHR (MPA AUC6-12 hour/AUC0-12 hour×100), mean [1]: 46%; % EHR (MPA AUC6-12 hour/AUC0-12 hour×100), range [1]: 41-60%; mean MPA trough ([1]; SD ±1.66): 3.5 mg/L; mean dose normalized MPA AUC0-12 ([1]; ±0.02): 0.07 mg·h/L; MPA concentration after incubation with stool bacteria compared to control samples (stool microbiota [2]; MPA arm, one kidney transplant patient stool, YCFA, 37° C., anaerobic, six, 24 and 48 hours, controls without stool): did not change; also recorded: no difference was detected; MPA concentration relative to amount expected from full MPAG conversion (stool microbiota [2]; MPAG arm, one patient stool, 24 and 48 hours): higher than the amount expected if all MPAG is converted to MPA; MPA concentration in MPAG tubes incubated with stool microbiome samples (stool microbiota [2]; MPAG arm, starting at six hours, upward trend at 24 and 48 hours): increase; Release of MPA bioaccumulated in microbiome cells on addition of MPAG (stool microbiota [2]; in vitro assay, MPAG substrate added): led to the release of MPA that had accumulated inside the cells; also recorded: promotes the release of bioaccumulated MPA
8 | COc1c(C)c2c(c(O[C@@H]3O[C@H](C(=O)O)[C@@H](O)[C@H](O)[C@H]3O)c1C/C=C(\C)CCC(=O)O)C(=O)OC2 [MPAG, mycophenolic acid glucuronide] | – | – | MPAG to MPA conversion in repeat assay (stool microbiota [3]): showed ability of the stool microbiome sample to metabolism MPAG to MPA as before; MPAG concentration in the MPA tubes incubated with stool microbiome samples (stool microbiota [2]; MPA arm, MPA to MPAG conversion, six, 24, 48 hours): no detectable concentrations; MPAG concentration in MPAG tubes incubated with stool microbiome samples (stool microbiota [2]; MPAG arm, one patient stool, anaerobic, six hours post incubation): rapid metabolism; also recorded: rapid decrease; MPAG concentration in control aliquots (stool microbiota [2]; MPAG in YCFA without stool, zero, six, 24, 48 hours): remained stable; MPAG to MPA conversion by gut microbiota (stool microbiota [2]; stool of five kidney transplant patients, YCFA, anaerobic, first six hours): Rapid metabolism; also recorded: high MPAG to MPA conversion
9 | CN(C)C(=N)N=C(N)N [Metformin] | – | Activation [2, 11] | –
10 | COc1c(C)c2c(c(O)c1C/C=C(\C)CCC(=O)OCCN1CCOCC1)C(=O)OC2 [Mycophenolate Mofetil (MMF), mycophenolate mofetil] | – | Toxicity [4-6] | –
11 | CC1=C(CC(=O)O)c2cc(F)ccc2/C1=C\c1ccc([S+](C)[O-])cc1 (stereo not shown) [Sulindac] | – | Toxicity [2, 4-6] | –
12 | C=CC[C@@H]1/C=C(\C)C[C@H](C)C[C@H](OC)[C@H]2O[C@@](O)(C(=O)C(=O)N3CCCC[C@H]3C(=O)O[C@H](/C(C)=C/[C@@H]3CC[C@@H](O)[C@H](OC)C3)[C@H](C)[C@@H](O)CC1=O)[C@H](C)C[C@@H]2OC [Tacrolimus] | – | Inactivation [8] | –
13 | Ipilimumab: Antil CTLA-4 human monoclonal antibody (Ab) therapeutic drug | – | – | Effect of microbial modification (Gut Microbiota): Activation [2, 10]
